Test results reported in the RepoRT retention time repository.

Assay: Waters ACQUITY UPLC BEH Shield RP18, 100 × 2.1 mm, 1.7 µm, 40 °C, 0.4 mL/min, estimated dead time 0.55 min; A: water + 0.1% formic acid; B: acetonitrile; gradient (min/%B) 0/2 10/18 15/28 22/40 32/67
Conditions: stereoisomer not certain

Row | LC retention time [min] | Compound
1 | 24.9 | CC(C)=CCc1cc(-c2cc(=O)c3c(O)cc(O)cc3o2)cc(O)c1O
2 | 19 | COc1ccc(-c2coc3cc(O)ccc3c2=O)cc1
3 | 19.9 | COc1cc(O)cc2oc(=O)c(-c3ccc(O)cc3O)cc12
4 | 24.8 | COc1cc2oc(-c3ccc(O)c(CC=C(C)C)c3)c(O)c2cc1OC
5 | 14.5 | O=C(C=Cc1ccc(O)cc1)c1ccc(OC2OC(CO)C(O)C(O)C2O)cc1O (configuration not stated)
6 | 9.18 | O=C1CC(c2ccc(O)cc2)Oc2cc(OC3OC(CO)C(O)C(O)C3O)ccc21 (configuration not stated)
7 | 15.1 | COc1cc(O)c2c(=O)c(OC)c(-c3ccc(O)cc3)oc2c1
8 | 26.9 | CC1(C)C=Cc2c(ccc(-c3coc4cc(O)cc(O)c4c3=O)c2O)O1
9 | 20.7 | CC1(C(=O)O)CCC2(C)CCC3(C)C(=CC(=O)C4C5(C)CCC(OC6OC(C(=O)O)C(O)C(O)C6OC6OC(C(=O)O)C(O)C(O)C6O)C(C)(CO)C5CCC43C)C2C1 (configuration not stated)
10 | 17.4 | CC1(C(=O)OC2OC(CO)C(O)C(O)C2O)CCC2(C)CCC3(C)C(=CC(=O)C4C5(C)CCC(OC6OC(C(=O)O)C(O)C(O)C6OC6OC(C(=O)O)C(O)C(O)C6O)C(C)(C)C5CCC43C)C2C1 (configuration not stated)
11 | 14 | O=C(C=Cc1ccc(OC2OC(CO)C(O)C(O)C2OC2OCC(O)(CO)C2O)cc1)c1ccc(O)cc1O (configuration not stated)
12 | 27.2 | COc1c(CC=C(C)C)c(O)cc2oc(=O)c3c4ccc(O)cc4oc3c12
13 | 8.56 | O=c1cc(-c2ccc(O)cc2)oc2c(C3OCC(O)C(O)C3O)c(O)c(C3OC(CO)C(O)C(O)C3O)c(O)c12 (configuration not stated)
14 | 17.8 | CC(=O)OC1CC(C)(C(=O)O)CC2C3=CC(=O)C4C5(C)CCC(OC6OC(C(=O)O)C(O)C(O)C6OC6OC(C(=O)O)C(O)C(O)C6O)C(C)(CO)C5CCC4(C)C3(C)CCC12C (configuration not stated)
15 | 26.3 | C=CC(C)(C)c1cc(C=CC(=O)c2ccc(O)cc2)c(OC)cc1O
16 | 22.3 | CC1(C(=O)O)CCC2(C)CCC3(C)C(=C2C1)C=CC1C2(C)CCC(OC4OC(C(=O)O)C(O)C(O)C4OC4OC(C(=O)O)C(O)C(O)C4O)C(C)(CO)C2CCC13C (configuration not stated)

Row | LC retention time [min] | Compound
17 | 14.3 | O=C(C=Cc1ccc(OC2OC(CO)C(O)C(O)C2O)cc1)c1ccc(O)cc1O (configuration not stated)
18 | 28.7 | COc1c(CC=C(C)C)c(O)cc2c1CC(c1ccc(O)c(CC=C(C)C)c1O)CO2 (configuration not stated)
19 | 12.3 | COc1ccc(-c2coc3cc(OC4OC(CO)C(O)C(O)C4O)ccc3c2=O)cc1 (configuration not stated)
20 | 26.1 | CC(C)=CCc1cc(-c2oc3cc(O)cc(O)c3c(=O)c2O)ccc1O
21 | 28.1 | CC(C)=CCc1c(O)cc2oc(-c3ccc(O)cc3)c(O)c(=O)c2c1O
22 | 10.2 | O=C1CC(c2ccc(OC3OC(CO)C(O)C(O)C3OC3OCC(O)(CO)C3O)cc2)Oc2cc(O)ccc21 (configuration not stated)
23 | 19.8 | CC12CC(OC1=O)C1(C)CCC3(C)C(=CC(=O)C4C5(C)CCC(OC6OC(C(=O)O)C(O)C(O)C6OC6OC(C(=O)O)C(O)C(O)C6O)C(C)(C)C5CCC43C)C1C2 (configuration not stated)
24 | 12.2 | COc1ccc(-c2coc3cc(OC4OC(CO)C(O)C(O)C4OC4OCC(O)(CO)C4O)ccc3c2=O)cc1 (configuration not stated)
25 | 6.01 | O=C1CC(c2ccc(OC3OC(CO)C(O)C(O)C3O)cc2)Oc2cc(OC3OC(CO)C(O)C(O)C3O)ccc21 (configuration not stated)
26 | 24.1 | COc1cc(O)c(-c2coc3cc(O)ccc3c2=O)c(OC)c1CC=C(C)C
27 | 9.89 | O=C1CC(c2ccc(OC3OC(CO)C(O)C(O)C3O)cc2)Oc2cc(O)ccc21 (configuration not stated)
28 | 4.34 | O=C(O)CC(C(=O)O)c1ccc(O)cc1 (configuration not stated)
29 | 16.8 | CC1(CO)CC(O)C2(C)CCC3(C)C(=CC(=O)C4C5(C)CCC(OC6OC(C(=O)O)C(O)C(O)C6OC6OC(C(=O)O)C(O)C(O)C6O)C(C)(C)C5CCC43C)C2C1 (configuration not stated)
30 | 15.1 | COc1ccc(-c2coc3cc(O)ccc3c2=O)cc1O
31 | 29.2 | CC1(C(=O)O)CCC2(C)CCC3(C)C(=CC(=O)C4C5(C)CCC(O)C(C)(C)C5CCC43C)C2C1 (configuration not stated)
32 | 14.6 | O=C1CC(c2ccc(O)cc2)Oc2cc(O)ccc21 (configuration not stated)
